Our source for the cellular uptake values is US10947261B2, “Tetravalent platinum compound-bicyclic double-bond-containing amphiphilic polymer prodrug, nano-micelle, preparation method and application thereof” (ANHUI UNIVERSITY, priority 2017, dated 2021).

For the assay, the system named is MCF-7, A549 and HepG2 cells. Briefly: Cellular uptake of drug-loaded micelles (confocal laser, flow cytometer). In kind it is cell-based, human. The conditions noted are these: doxorubicin 16 μg/mL, 4 h.

Description: Cell culture: human breast cancer cells (MCF-7), human lung adenocarcinoma cells (A549) and human hepatoma cells (HepG2) were respectively added to a standard 6-well plate, and about 10^5 cells are in each well. After overnight culture, the culture medium was removed, and 1.8 mL of fresh medium was added to prepare three cell culture solutions.
Drug treatment: 0.2 mL of each of the above two drugs (the final concentration of doxorubicin was 16 μg/mL) were added to the three cell culture solutions, respectively, and the cells were cultured for 4 h; subsequently, the culture medium was removed, and the cells were washed twice with PBS, fixed with 4% paraformaldehyde solution (about 5 min), and then washed twice with PBS; then, the nuclei of cells were stained with nuclear staining reagent (5 min), and the cells were washed twice with PBS.

For `COc1cccc2c1C(=O)c1c(O)c3c(c(O)c1C2=O)C[C@@](O)(C(=O)CO)C[C@@H]3O[C@H]1C[C@H](N)[C@H](O)[C@H](C)O1` [doxorubicin], the cellular uptake result is reported as “cellular uptake can effectively occur”.
